pIC50: −log10 of the molar value.
How the values were obtained:
Assay type in all cases: cell-based
[1] = system: monomac6; test: In vitro ADC activity, AML cell lines, CellTiter-Glo (Example 20); conditions: monomac6, 5 days
[2] = system: ocim1; test: as above; conditions: ocim1, 5 days
[3] = system: mv411; test: as above; conditions: mv411, 5 days
[4] = system: hel9217; test: as above; conditions: hel9217, 5 days
[5] = system: kasumi6; test: as above; conditions: kasumi6, 5 days
[6] = system: ociaml3; test: as above; conditions: ociaml3, 5 days
[7] = system: 5340hx; test: as above; conditions: 5 days
[8] = system: pl21; test: as above; conditions: pl21, 5 days
[9] = system: nomo1; test: as above; conditions: nomo1, 5 days
[10] = system: skm1; test: as above; conditions: skm1, 5 days
[11] = system: nb4; test: as above; conditions: nb4, 5 days
[12] = system: 5979hx; test: as above; conditions: 5 days
[13] = system: KMS-20; test: CellTiter-Glo proliferation assay, single agent and with venetoclax (Example 19); conditions: 5 days; for pIC50: KMS-20, 120 h; for Amax: in %
Procedure: (§1) The CD48 MCL-1 antibody drug conjugates were tested against four endogenous cancer cell lines. KMS-21 BM (JCRB No. JCRB1185 cultured in RPMI-1640+10% FBS), KMS-20 (JCRB No. JCRB1196 cultured in RPMI-1640+10% FBS), KMS-27 (JCRB No. JCRB1188 cultured in RPMI-1640+10% FBS), and NCI-H929 (ATCC No. CRL-9068 cultured in RPMI-1640+10% FBS+0.05 mM 2-mercaptoethanol).
(§2) The ability of the CD48 MCL-1 antibody drug conjugates to inhibit cell proliferation and survival was assessed using the Promega CellTiter-Glo® proliferation assay. Cell lines were cultured in media that is optimal for their growth at 5% CO2, 37° C. in a tissue culture incubator. Prior to seeding for the proliferation assay, the cells were split at least 2 days before the assay to ensure optimal growth density. On the day of seeding, suspension cells were harvested. Cell viability and cell density were determined using a cell counter (Vi-Cell XR Cell Viability Analyzer, Beckman Coulter). […] Cells were seeded at a density of 1,000 cells per well in 45 μL of standard growth media. Plates were incubated at 5% CO2, 37° C. overnight in a tissue culture incubator. The next day, free MCL-1 payload (P1), targeting MCL-1 ADCs and non-targeting isotype ADCs were prepared at 10× in standard growth media. The prepared drug treatments were then added to the cells resulting in final concentrations of 0.0005-300 nM and a final volume of 50 μL per well. Each drug concentration was tested in quadruplets. Two conditions were evaluated for each compound. The compounds were evaluated as single agents and in combination with venetoclax. The venetoclax was dosed at either 5 nM or 50 nM final concentration. Plates were incubated at 5% CO2, 37° C. for 5 days in a tissue culture incubator, after which cell viability was assessed through the addition of 25 μL of CellTiter Glo® (Promega, cat #G7573), a reagent which lyses cells and measures total adenosine triphosphate (ATP) content. Plates were incubated at room temperature for 10 minutes to stabilize luminescent signals prior to reading using a luminescence reader (EnVision Multilabel Plate Reader, PerkinElmer). To evaluate the effect of the drug treatments, luminescent counts from wells containing untreated cells (100% viability) were used to normalize treated samples. A variable slope model was applied to fit a nonlinear regression curve to the data in GraphPad PRISM version 7.02 software. IC50 and Amax values were extrapolated from the resultant curves.

[14] = system: KMS-21 BM; test: as above; conditions: 5 days; for pIC50: 120 h; for Amax: in %
Procedure: as §1, §2

[15] = system: KMS-27; test: as above; conditions: 5 days; for pIC50: KMS-27, 120 h; for Amax: in %
Procedure: as §1, §2

[16] = system: NCI-H929; test: as above; conditions: 5 days; for pIC50: Homo sapiens, NCI-H929, 120 h; for Amax: in %
Procedure: as §1, §2

[17] = system: tf1; test: In vitro ADC activity, AML cell lines, CellTiter-Glo (Example 20); conditions: tf1, 5 days

COc1ccccc1-c1nccc(COc2ccccc2C[C@@H](Oc2ncnc3sc(-c4ccc(F)cc4)c(-c4ccc(OCCN5CCN(C)CC5)c(Cl)c4C)c23)C(=O)O)n1 [P1, (2R)-2-[5-[3-chloro-2-methyl-4-[2-(4-methylpiperazin-1-yl)ethoxy]phenyl]-6-(4-fluorophenyl)thieno[2,3-d]pyrimidin-4-yl]oxy-3-[2-[[2-(2-methoxyphenyl)pyrimidin-4-yl]methoxy]phenyl]propanoic acid] was tested, and the GI50 ([1]; Homo sapiens, MONO-MAC-6, 120 h) was 0.001 µM, the Amax ([1]; in % (unit assumed)) was −43 and the GI50 ([2]; OCI-M1, 120 h) was > 10 µM. For the same compound, the Amax ([2]; unit assumed) was 86%, the GI50 ([3]; Homo sapiens, MV4-11, 120 h) was 0.001 µM and the Amax ([3]; in % (unit assumed)) was −72. It also gave a GI50 ([4]; Homo sapiens, HEL 92.1.7, 120 h) of 5.28 µM, an Amax ([4]; in % (unit assumed)) of −1 and a GI50 ([5]; 120 h) of 0.004 µM. The Amax ([5]; in % (unit assumed)) was −96, the GI50 ([6]; Homo sapiens, OCI-AML-3, 120 h) was 0.138 µM and the Amax ([6]; unit assumed) was 1%. For the same compound, the GI50 ([7]; 120 h) was 0.001 µM, the Amax ([7]; in % (unit assumed)) was −92 and the GI50 ([8]; PL-21, 120 h) was 0.35 µM. It also gave an Amax ([8]; in % (unit assumed)) of −55, a GI50 ([9]; Homo sapiens, NOMO-1, 120 h) of 0.001 µM and an Amax ([9]; in % (unit assumed)) of −80. The GI50 ([10]; Homo sapiens, SKM-1, 120 h) was 0.119 µM, the Amax ([10]; in % (unit assumed)) was −49 and the GI50 ([11]; Homo sapiens, NB-4, 120 h) was 0.003 µM. For the same compound, the Amax ([11]; in % (unit assumed)) was −62, the GI50 ([12]; 120 h) was 0.001 µM and the Amax [12] was −83. It also gave a pIC50 ([13]; KMS-20, + 5 nM Venetoclax) of 7.51, a pIC50 ([13]; KMS-20, + 50 nM Venetoclax) of 7.44 and a pIC50 ([13]; KMS-20, single agent) of 7.46. It also gave an Amax ([13]; KMS-20, + 5 nM Venetoclax) of 75.53, an Amax ([13]; KMS-20, + 50 nM Venetoclax) of 82.77 and an Amax ([13]; KMS-20, single agent) of 65.65. The pIC50 ([14]; + 5 nM Venetoclax) was 8.25, the pIC50 ([14]; + 50 nM Venetoclax) was 8.28 and the pIC50 ([14]; single agent) was 8.24. For the same compound, the Amax ([14]; + 5 nM Venetoclax) was 100.8, the Amax ([14]; + 50 nM Venetoclax) was 99.41 and the Amax ([14]; single agent) was 94.25. The pIC50 ([15]; KMS-27, + 5 nM Venetoclax) was 7.70, the pIC50 ([15]; KMS-27, + 50 nM Venetoclax) was 7.92 and the pIC50 ([15]; KMS-27, single agent) was 6.82. It also gave an Amax ([15]; KMS-27, + 5 nM Venetoclax) of 110.5, an Amax ([15]; KMS-27, + 50 nM Venetoclax) of 114.7 and a pIC50 ([16]; NCI-H929, + 5 nM Venetoclax) of 8.06. It also gave a pIC50 ([16]; NCI-H929, + 50 nM Venetoclax) of 8.08, a pIC50 ([16]; NCI-H929, single agent) of 7.97 and an Amax ([16]; NCI-H929, + 5 nM Venetoclax) of 91.53. It also gave an Amax ([16]; NCI-H929, + 50 nM Venetoclax) of 103.4, an Amax ([16]; NCI-H929, single agent) of 90.09 and a GI50 ([17]; Homo sapiens, TF-1, 120 h) of 0.239 µM. It also gave an Amax ([17]; unit assumed) of 10%.

Source: patent US20230092679A1, “MCL-1 INHIBITOR ANTIBODY-DRUG CONJUGATES AND METHODS OF USE” (NOVARTIS AG, priority 2019, published 2023)
